Test results published in PMC5951580, “The effect of acylation with fatty acids and other modifications on HLA class II:peptide binding and T cell stimulation for three model peptides” (PLoS ONE, 2018).

What was measured:
[1] = tested on: PBMCs from healthy donors; assay: Two-week re-stimulation T cell assay with IFN-γ, IL-5 and IL-10 fluorospot; format: cell-based, human; conditions: for Frequency of responding donors compared to the non-acylated peptide (in words) / Magnitude of the response (SFC, all cytokines) compared to the non-acylated peptide (in words) / Frequency of responding donors (all cytokines): peptide 50 μg/ml, IFN-γ/IL-5/IL-10 fluorospot, n = 22; for Frequency of responding donors compared to the non-acylated peptide (in words) / Magnitude of the response (SFC, all cytokines) compared to the non-acylated peptide (in words): re-stimulation; for Frequency of responding donors (all cytokines): 14 days stimulation with IL-2, re-stimulation 20h, one positive hit for one cytokine equals a positive donor
HLA-DQA1*01:02/B1*06:02 = HLA-DQA1*01:02/B1*06:02 (Homo sapiens, UniProt P01909+P01920, A157G/A45G/C70R/E118A/E183D/E77G/F83G/G63E/H151Q/H199R/H252R/H253Q/I129T/I235V/I88M/INS77G/K197Q/L117V/L119F/L178F/L71W/L74F/L85Q/L91A/L98M/N214S/P87R/Q116E/Q76K/R102G/R240Q/R75S/R78G/S102Y/S185I/S41F/S97I/T121G/T122I/T172A/T86R/V229M/V68A/V73E/Y34C/Y41F/Y58L); format: binding; conditions: threshold IC50 1000 nM
Sequence of HLA-DQA1*01:02/B1*06:02 (P01920 33-261 with the stated changes limits assumed, other chains not shown): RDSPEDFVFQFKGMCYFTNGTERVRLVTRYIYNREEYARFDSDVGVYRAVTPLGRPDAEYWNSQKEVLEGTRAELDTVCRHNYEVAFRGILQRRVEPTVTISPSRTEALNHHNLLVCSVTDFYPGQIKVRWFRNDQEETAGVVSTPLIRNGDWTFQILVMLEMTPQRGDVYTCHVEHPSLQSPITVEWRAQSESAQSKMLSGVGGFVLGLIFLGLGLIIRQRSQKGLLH

HLA-DR alleles = tested on: HLA-DR alleles; design: species or system human; conditions: 15 HLA-DR alleles analyzed, IC50 of 1000 nM as binding threshold
[2] = cited from earlier work
[3] = human, in vivo; cited from earlier work

Peptide 10: Exendin-4 acylated with C18 via Oeg-Oeg-LγGlu at 20 (WT R to K)
Frequency of responding donors compared to the non-acylated peptide (in words) ([1]; 14 days stimulation): further decreases
Magnitude of the response (SFC, all cytokines) compared to the non-acylated peptide (in words) ([1]; 14 days stimulation): decreased magnitudes

Peptide 11: Exendin-4 acylated with C18 via Oeg-Oeg-LγGlu at 27 (K)
Frequency of responding donors (all cytokines) [1]: None

Peptide 13: Exendin-4 acylated with 2 x C18 via Oeg-Oeg-LγGlu at 12 (K) + 27 (K)
Frequency of responding donors compared to the non-acylated peptide (in words) ([1]; 14 days stimulation): decreased
Magnitude of the response (SFC, all cytokines) compared to the non-acylated peptide (in words) ([1]; 14 days stimulation): decreased

QLLDRGATALVLQVLNVPRLMTQD [Peptide 14, Vatreptacog alfa (285–309) peptide fragment, 25-aa, non-acylated]
Frequency of responding donors (all cytokines) [1]: 45%

PKYVKQNTLKLAT [Peptide 1]
HLA-DQA1*01:02/B1*06:02 binding capacity (binder / non-binder) (HLA-DQA1*01:02/B1*06:02): non-binder
HLA-DR alleles that bound the peptide with an affinity of 1000 nM or better (number/number analyzed) (HLA-DR alleles): 12/15
HLA-DR alleles that bound the peptide with an affinity of 1000 nM or better (HLA-DR alleles; radiolabeled peptide competition, two-day incubation, three or more independent experiments): 80%
Cytokine response (IFN-γ, IL-5, IL-10 secreting cells) in words ([1]; peptide 5 μg/ml, 14 days stimulation, re-stimulation 20 hours, fluorospot, seven donors): significant numbers of IFN-γ, IL-5 and IL-10 producing cells
Donors with an immunogenic response [2]: approximately 30%

Peptide 7: Exendin-4 (1–39), 39-aa peptide used for the treatment of diabetes mellitus type 2, non-acylated
Patients treated with the compound that show an immunogenic response [3]: 40–60%
Frequency of responding donors (all cytokines) [1]: 40%

Peptide 12: Exendin-4 acylated with C18 via Oeg-Oeg-LγGlu at C-terminus
Frequency of responding donors (all cytokines) [1]: 10%
